From ChEMBL document CHEMBL1649222, “In vitro antibacterial activity of acyl-lysyl oligomers against Helicobacter pylori” (Antimicrob Agents Chemother, 2009) come the findings set out here.

In data set [1] the test system is Helicobacter pylori. Kind of data set: Antimicrobial activity against Helicobacter pylori HPAG1. In kind it is functional.
Data set [2] concerns Helicobacter pylori. In words: Antimicrobial activity against Helicobacter pylori G27 at MBC by time-kill analysis. In kind it is functional.
The test system of data set [3] is Helicobacter pylori. In words: Bactericidal activity against Helicobacter pylori 7.13 at 40 uM after 10 hrs. In kind it is functional, organism-based.
In data set [4] the test system is Helicobacter pylori. Kind of data set: Bactericidal activity against Helicobacter pylori G27 preincubated at 37 degC for 1 hr. Type of data set: functional.
Data set [5] relates to Helicobacter pylori. Kind of data set: Antimicrobial activity against Helicobacter pylori J99. Type of data set: functional.
Data set [6] is described as follows: Toxicity in horse erythrocytes assessed as hemolytic activity at 0.625 to 40 uM. Type of data set: cell-based, Equus caballus. The note with it: erythrocyte.
The test system of data set [7] is Helicobacter pylori. In words: Antimicrobial activity against Helicobacter pylori SS1. In kind it is functional.
For data set [8], the system named is Helicobacter pylori. Kind of data set: Antimicrobial activity against Helicobacter pylori 7.13 at 2 times MBC by time-kill analysis. Type of data set: functional.
The subject of data set [9] is Helicobacter pylori. In words: Antimicrobial activity against Helicobacter pylori J99 at 2 times MBC by time-kill analysis. In kind it is functional.
Data set [10] concerns Helicobacter pylori. In words: Antimicrobial activity against Helicobacter pylori 7.13 at MBC by time-kill analysis. Type of data set: functional.
Data set [11] concerns Helicobacter pylori. In words: Bactericidal activity against Helicobacter pylori J99 at 40 uM after 10 hrs. In kind it is functional.
Data set [12] relates to Helicobacter pylori. In words: Bactericidal activity against Helicobacter pylori G27 preincubated at 95 degC for 1 hr. Type of data set: functional.
The subject of data set [13] is Helicobacter pylori. Kind of data set: Bactericidal activity against Helicobacter pylori G27 at 40 uM after 10 hrs. In kind it is functional.
Data set [14] is described as follows: Toxicity in horse erythrocytes assessed as hemolytic activity at 80 uM. Type of data set: cell-based, Equus caballus. The conditions noted are these: erythrocyte.
Data set [15] has as its system Helicobacter pylori. In words: Antimicrobial activity against Helicobacter pylori G27 at 2 times MBC by time-kill analysis. Type of data set: functional.
Data set [16] deals with Helicobacter pylori. Kind of data set: Antimicrobial activity against Helicobacter pylori 7.13. Type of data set: functional.
The test system of data set [17] is Helicobacter pylori. Kind of data set: Antimicrobial activity against Helicobacter pylori G27. In kind it is functional.
Data set [18] has as its system Helicobacter pylori. Kind of data set: Bactericidal activity against Helicobacter pylori G27 preincubated at 50 degC for 1 hr. Type of data set: functional.
The nature of data set [19]: Antimicrobial activity against Helicobacter pylori 26695. In kind it is functional.
For data set [20], the system named is Helicobacter pylori. Kind of data set: Bactericidal activity against Helicobacter pylori G27 preincubated at 55 degC for 1 hr. In kind it is functional.
Data set [21] concerns Helicobacter pylori. In words: Bactericidal activity against Helicobacter pylori G27 at pH 4.5. In kind it is functional.
Data set [22] relates to Helicobacter pylori. In words: Antimicrobial activity against Helicobacter pylori J99 at MBC by time-kill analysis. In kind it is functional.
The subject of data set [23] is Helicobacter pylori. Kind of data set: Bactericidal activity against Helicobacter pylori G27 preincubated at 60 degC for 1 hr. Type of data set: functional.
In data set [24] the test system is Helicobacter pylori. Kind of data set: Bactericidal activity against Helicobacter pylori G27 preincubated at 4 degC for 1 hr. Type of data set: functional.
In data set [25] the test system is Helicobacter pylori. Kind of data set: Bactericidal activity against Helicobacter pylori G27 preincubated at 42 degC for 1 hr. Type of data set: functional.
The subject of data set [26] is Helicobacter pylori. Kind of data set: Bactericidal activity against Helicobacter pylori G27 at pH 6.9. Type of data set: functional.

≈ marks a conversion by molar mass, not a printed value. Calls of active or inactive are those of the source. No cut-off for these calls is given here. Non-standard residues stand in square brackets, D forms with d. Residues, ends and D or L forms follow the SMILES beside them. *: point of attachment. Lauroyl = CCCCCCCCCCCC(=O)*; 12Ado = NCCCCCCCCCCCC(=O)O

What is called MBC is the lowest tested concentration that kills the bacteria rather than only halting them. A high value points to weaker bactericidal potency. As usually defined, the MIC is the least concentration at which growth counts as inhibited. High values mean weaker potency, low ones greater potency.

Turning to `CCCCCCCCCCCC(=O)N[C@@H](CCCCN)C(=O)N[C@@H](CCCCN)C(=O)NCCCCCCCCCCCC(=O)N[C@@H](CCCCN)C(=O)N[C@@H](CCCCN)C(=O)NCCCCCCCCCCCC(=O)N[C@@H](CCCCN)C(N)=O` (Lauroyl-KK[12Ado]KK[12Ado]K-NH2), the minimum bactericidal concentration (MBC) is 40 µM (≈ 49.4 µg/mL) in data set [1]; 20 µM (≈ 24.7 µg/mL) in data set [5]; 45 µM (≈ 55.6 µg/mL) in data set [7]; 14.5 µM (≈ 17.9 µg/mL) in data set [16]; 15 µM (≈ 18.5 µg/mL) in data set [17]; 70 µM (≈ 86.4 µg/mL) in data set [19]. For the same molecule, the minimum inhibitory concentration (MIC) is 10.5 µM (≈ 13 µg/mL) in [1]; 10.5 µM (≈ 13 µg/mL) in data set [5]; 25.5 µM (≈ 31.5 µg/mL) in data set [7]; under 9 µM in [16]; 6.5 µM (≈ 8.03 µg/mL) in data set [17]; 25 µM (≈ 30.9 µg/mL) in data set [19]. Further, the Time in data set [2] was 6.1 h; in data set [8], 3.5 h; in data set [9], 1.8 h; in data set [10], 6.1 h; in data set [15] it was 2.7 h; in data set [22] it was 3.8 h. Also, the result in data set [3], in data set [4], in data set [11], in data set [12], in data set [13] and in [18] was Active. Further, the outcome in data set [20], in [23], in [24], in data set [25] and in [26] was Active. Besides, the Activity entry in data set [6] was “Non-toxic”; in [14] it was “Toxic”. Moreover, the result in data set [21] was inactive.
In data set [17], `CCCCCCCCCCCC(=O)N[C@@H](CCCCN)C(=O)NCCCCCCCC(=O)N[C@@H](CCCCN)C(=O)NCCCCCCCC(=O)N[C@@H](CCCCN)C(=O)NCCCCCCCC(=O)N[C@@H](CCCCN)C(=O)NCCCCCCCC(=O)N[C@@H](CCCCN)C(=O)NCCCCCCCC(=O)N[C@@H](CCCCN)C(=O)NCCCCCCCC(=O)N[C@@H](CCCCN)C(=O)NCCCCCCCC(=O)N[C@@H](CCCCN)C(N)=O` had an MBC of over 100 µM and a minimal inhibitory concentration (MIC) of 25 µM (≈ 55.3 µg/mL).
On the same counts, the results for `CCCCCCCCCCCC(=O)N[C@@H](CCCCN)C(=O)NCCCCCCCC(=O)N[C@@H](CCCCN)C(=O)NCCCCCCCC(=O)N[C@@H](CCCCN)C(=O)NCCCCCCCC(=O)N[C@@H](CCCCN)C(=O)NCCCCCCCC(=O)N[C@@H](CCCCN)C(=O)NCCCCCCCC(=O)N[C@@H](CCCCN)C(N)=O` are over 100 µM and 25 µM (≈ 41.9 µg/mL).
